US20230145666A1, “REAL TIME ELECTRONIC CELL SENSING SYSTEMS AND APPLICATIONS FOR CELL-BASED ASSAYS” (Agilent Technologies, Inc., priority 2002, published 2023)
Read-outs that look alike come from different tables or passages of the source.

Experiments:
Format in all cases: cell-based, rat
[1] = tested on: IgE-mediated RBL-2H3 mast cell activation; test: Cell-substrate impedance assay: pharmacological inhibition of antigen-mediated mast cell activation; conditions: at peak response
Description: RBL-2H3 mast cells were sensitized with 100 ng/mL anti-DNP-IgE and then incubated with the indicated concentrations of the Bisindolylmaleimide 1 hour prior to addition of 100 ng/mL DNP-BSA. The impedance value indicated as Cell Index was monitored using a cell-substrate impedance monitoring system of the present invention.
The real-time cell-substrate impedance monitoring system comprises three components, an impedance analyzer, a device station, and one or more 16X microtiter devices. Microelectrode sensor arrays were fabricated on glass slides using lithographical microfabrication methods and the electrode-containing slides were assembled to plastic trays to form 16 electrode-containing wells. The device station of the system receives the 16X microtiter devices and is capable of electronically switching any one of the wells to the sensor (impedance) analyzer for impedance measurement. In operation, the devices with cells cultured in the wells are placed into a device station that is located inside an incubator. Electrical cables connect the device station to the sensor (impedance) analyzer. Under the impedance monitoring system’s software control, the impedance analyzer can automatically select wells to be measured and continuously conduct impedance measurements. The impedance data from the analyzer is transferred to a computer, analyzed and processed by integrated software.
To quantify cell status based on the measured cell-electrode impedance, a parameter termed Cell Index is derived, according to
where Rb (f) and Rcell (f) are the frequency dependent electrode resistances (a component of impedance) without cells or with cell present, respectively. N is the number of the frequency points at which the impedance is measured. Thus, Cell Index is a quantitative measure of the status of the cells in an electrode-containing well. Under the same physiological conditions, more cells attached on to the electrodes leads to larger Rcell (f) value, leading to a larger value for Cell Index. […]
20,000 RBL-2H3 cells were seeded per well of a 16X microtiter device and monitored by the impedance measuring system. […] The cell-electrode impedance was continuously measured and the corresponding, time dependent Cell-Index values were derived and recorded.
RBL-2H3 cells were seeded in a 16X microtiter plate device and pre-stimulated with anti-DNP-IgE were incubated for 1 hour with the indicated doses of the PKC-specific inhibitor Bisindolylmaleimide and subsequently treated with 100 ng/mL DNP-BSA (FIG. 17). The dose-dependent inhibition of RBL-2H3 mast cell activation by Bisindolylmaleimide can be monitored on the cell-substrate monitoring system in real-time. […]

RBL-2H3 mast cells [2] = test: Fluorescence microscopy of actin cytoskeleton (rhodamine-phalloidin); conditions: DNP-BSA cross-linking
Description: FIGS. 15A-B show correlation between cell-electrode impedance response of RBL-2H3 mast cells and cell morphological dynamics and mediator release. (A) RBL-2H3 mast cells were sensitized with 100 ng/mL IgE or treated with a control IgG antibody and subsequently activated with DNP-BSA. The cells were fixed with paraformaldehyde at the indicated time points, permeablized and stained with rhodamine-phalloidin. The cells were visualized and photographed with a Nikon E-400 immunoflourescence microscope equipped with a CCD camera. (B) RBL-2H3 cells were sensitized with IgE, activated by the addition of DNP-BSA.
RBL-2H3 cells were seeded in 16 well Lab-Tec chamber slides and allowed to attach and spread for 6 hours. The cells were stimulated with anti-DNP IgE at a final concentration of 100 ng/mL or a non-specific mouse IgG at 100 ng/mL and then 16 hours later, the media was aspirated, replaced with fresh media and treated with 100 ng/mL DNP-BSA for the indicated time and then fixed with 4 % parafarmaldehyde. The cells were washed 3X with PBS, permeablized in PBS containing 0.2% TX-100 and blocked in PBS containing 0.5 % BSA. The cells were then stained with rhodamine-phalloidin for 30 minutes, washed 3X with PBS and visualized and imaged using the tritc filter on a Nikon E400 epi-fluorescence microscope and Nikon ACT software. […]

RBL-2H3 mast cells [3] = test: Impedance monitoring of RBL-2H3 mast cell response to IgE and antigen; conditions: anti-DNP IgE sensitized, 100 ng/mL DNP-BSA (FIG. 14)
Description: FIG. 13 is a plot of cell index recording indicating mast cell responses to IgE in the presence or absence of antigen. 20,000 RBL-2H3 mast cells were seeded in each well of a 16× device. Cells were allowed to adhere and grow for 22 hours while being recorded. At 22 hours the cells were treated with either 1 microgram/mL non-specific mouse IgG or 1 microgram/mL anti-DNP mouse IgE. The electronic impedance response of the cells were continued to be recorded for an additional 20 hours after which the media in the wells were aspirated and replaced with fresh serum free media. The cells were allowed to recover for 30 minutes and then treated with the 1 microgram/mL of the antigen, DNP-BSA. The electronic impedance response of the cells was measured for an additional 3 hours.
Approximately 14 hours after seeding the cells were incubated with 100 ng/mL anti-DNP IgE followed by application of 100 ng/mL DNP-BSA 24 hours later. Impedance measurements (indicated as Cell Index) were performed at 5 minute intervals post DNP-BSA application.
FIGS. 16A-B show IgE alone-mediated increase in mast cell-electrode impedance response and its effect on antigen-mediated activation step. (A) RBL-2H3 cells seeded on microelectronic sensor arrays were left untreated or treated with indicated concentration of anti-DNP IgE. The impedance value indicated as Cell Index was continuously monitored and recorded using a cell-substrate impedance monitoring system. […] The impedance value indicated as Cell Index was continuously monitored using the system. […]
RBL-2H3 cells were seeded in the 16X device chamber (depicted in FIG. 2) at 20,000 cells/well and the attachment and growth of the cells in the 37° C. tissue culture incubator were monitored in real-time using the cell-substrate monitoring system. […]
20,000 RBL-2H3 cells were seeded per well of a 16X microtiter device and monitored by the impedance measuring system. […] The cell-electrode impedance was continuously measured and the corresponding, time dependent Cell-Index values were derived and recorded. […]

[4] = Rattus norvegicus, RBL-2H3, mast cell activation by impedance, Bisindolylmaleimide N=3, SU6656 N=5, U73122 N=5, Piceatannol N=1, read-out: IC50±SD

Compound: Oc1cc(O)cc(/C=C/c2ccc(O)c(O)c2)c1 [Piceatannol]
- IC50 [1, 4]: 1000 nM

Compound: CN(C)S(=O)(=O)c1ccc2c(c1)/C(=C/c1cc3c([nH]1)CCCC3)C(=O)N2 [SU6656]
- IC50 [1, 4]: 5800 ± 3500 nM

Compound: COc1ccc2c(c1)CC[C@@H]1[C@@H]2CC[C@]2(C)[C@@H](NCCCCCCN3C(=O)C=CC3=O)CC[C@@H]12 [U73122]
- IC50 ([1]; antigen-mediated RBL-2H3 activation, read-out: IC-50 value): ~1000 nM
- IC50 ([1]; mast cell activation by impedance, Bisindolylmaleimide N=3, SU6656 N=5, U73122 N=5, Piceatannol N=1, read-out: IC50±SD): 930 ± 600 nM

Compound: DNP-BSA: multi-valent antigen DNP-BSA
- time at which extensive ruffling is apparent (RBL-2H3 mast cells [2]; printed as post IgE stimulation): 2.5 min
- time of peak cytoskeletal reorganization (RBL-2H3 mast cells [2]; printed as post-IgE stimulation): 30 to 45 min
- time of return to baseline (RBL-2H3 mast cells [3]): approximately 2.5 hours
- time to detectable impedance increase (RBL-2H3 mast cells [3]): ≤ 5 min
- time to maximal impedance increase (RBL-2H3 mast cells [3]): ≤ 30 min
